Results: patent US12318357B2, “Small molecule drugs and related methods for treatment of diseases related to TDP-43, alpha-synuclein, huntingtin's protein and tau protein oligomer formation” (ACELOT, INC., priority 2019, dated 2025)
“Also recorded” adds a separate entry of the source. Where two headings read alike, the source gives them in different places.

Legend:
[1] = tested on: TDP43 granules in U2OS cells stably expressing tGFP tagged human TDP-43; assay: TDP43 granule formation inhibition in TDP43-tGFP-U2OS cells after sodium arsenite treatment; format: cell-based; details: for TDP43 granule formation inhibition in cells after arsenite treatment (overall result): 24 h pre-incubation, 1-10 μM, 250 μM sodium arsenite 120 min
From the text: Amyotrophic lateral sclerosis (ALS) is one of the most common degenerative diseases of the motor neuron system. TDP-43 related pathologies seem to be a dominant type of pathologies across sporadic ALS types. A novel fluorescence cell-based assay for High Content Screening that allows the quantification of pathological TDP43 granules has been developed. In this work we have used this model to screen the effects of three compounds, using Riluzole as a positive control. The TDP-43 U2OS cell line contains U2OS cells stably expressing the tGFP tagged human TDP-43. This cell line has been designed to test compounds and to analyse their capability to modulate TDP43 granule formation after cytotoxic stress induction. The cell line was generated in Innoprot. It is a stable cell line that express the LacRI repressor protein and the TDP43-turboGFP protein. The cell line was generated using the pCMVLacRI-Hygro plasmid (Hygromycin resistance) and the pPuro-TDP43tGFP plasmid (that confers the puromycin resistance). The cell line was generated transfecting these plasmids with Lipofectamine LTX reagent, and the transfected cells were diluted until critical dilution. The negative control show a diffuse nuclear distribution of the fluorescence, but after sodium arsenite treatment the phenotype turns into a cytosolic vesicular pattern corresponding to stress granules and into an intensive nuclear granules pattern. The aim of this work was to assess different doses of 11 compounds.
The objective of these experiments was to screen the protective effect of 11 compounds and reference compound (arimoclomol) against cellular oxidative stress induced by sodium arsenite (i.e., arsenite). The compounds have been tested at 10 μM, […], 2 μM and 1 μM each, and appropriate controls (vehicle, arsenite and controls) have been included as well. The compound tested were the following: 101, 102, 103, 104, 105, 106, 107, 201, 202, 203 and 204.
Each compound was prepared in Optimem. In the final dilution, DMSO was added in order to obtain a final DMSO concentration of 0.1$, the same that the reference compound (arimoclomol). All compounds were tested at 0.1% DMSO (vehicle) final concentration.
Day 1 (Thursday). Recombinant TDP43-tGFP-U2OS cell line was thawed (2×10^6 cells per T75). Day 2 (Friday). After 24 hours, Cells were maintained in DMEM-F12 supplemented with 10% FBS at 37° C. in a humidified 5% CO2 atmosphere. Day 5 (Monday). Cells were plated in coated 96-well plates with a number of 10.000 cells (+/−2000 cells) per well. Cells were maintained in DMEM-F12 medium supplemented with 10% FBS for 24 h at 37° C. in a humidified 5% CO2 atmosphere. Day 6 (Tuesday). Cells were incubated with test compounds and IPTG 1 mM in triplicate assays during 24 hours. Day 7 (Wednesday). Culture medium was replaced, and cells were treated with 250 μM of sodium arsenite during 120 min and TDP-43 globs formation was quantified in both cell cytoplasm and cell nucleus. The TDP43 granules formation was quantified after the formaldehyde fixation (3.7 wt. %, 20 minutes) of the cells. The nuclei were stained using DAPI (2 μg/ml) and the fluorescence was measured using a Cell Insight High-Content Bioimager from Thermofisher. To detect the DAPI, the filters used were 380/10 and 460/10 nm for excitation and emission, respectively and to detect the TDP43 granules, the filters were 488/20 and 520/20 nm, respectively. The images were obtained with an objective of 20×, taking 9 pictures of each well. Cell quantification was performed delimitating the region of interest of the nuclei (stained with DAPI) and after quantification, the average of each triplicate was performed. Granule quantification was also performed using the Thermofisher Cellomics Scan Viewer 6.1.1. Spot detector application from Cell Software delimitated 2 regions of interest, the nuclei and cytosol. This software application quantified the number of granules per nuclei and the average granule number per cytosol of each well was calculated. […]

TDP-43307-319 WT peptide [2] = target: T1, TDP-43307-319 WT peptide (Homo sapiens, UniProt Q13148); assay: IM-MS monitoring of oligomerization of TDP-43307-319 (recovery study on aggregated peptide); format: biochemical; details: for oligomer distribution initially after addition of inhibitor to aggregated WT peptide: initial time point; for remodeling of developed higher-order oligomers and prevention of re-formation (overall): recovery study on aggregated peptide; for rate of redistribution relative to the other inhibitors: recovery study, comparison among molecules; for oligomer distribution a week after single treatment: one week
T1 construct: TDP-43307-319 WT peptide 307 [MGGGMNF GAFSIN]319; made in house; host or cells: chemical synthesis (Fmoc solid phase peptide synthesis), not recombinant
Description: Peptide Synthesis and Purification. TDP-43307-319 WT peptide 307 [MGGGMNF GAFSIN]319 was synthesized using standard 9-fluorenylmethoxycarbonyl (Fmoc) chemistry using 2-(1H-benzotriazol-1-yl)-1,1,3,3-tetramethyluronium hexafluorophosphate/hydroxy-benzotriazole (HBTU/HOBT) manual solid phase peptide synthesis. The peptide was amidated with an Fmoc-Rink Amide resin (Anaspec). The peptide was cleaved from the resin using 94% TFA, 5% triisopropylsilane, and 1% phenol for 2 h at 295 K. The crude peptide was purified by reverse phase high performance liquid chromatography (RP-HPLC) on a semipreparative C18 column (Phenomenex) using gradients of water [0.1% (v/v) TFA] and acetonitrile [0.1% (v/v) TFA]. The peptide was dissolved in 6 M guanidine hydrochloride (GdnHCl) prior to injection due to its insolubility in water and acetonitrile. The peptide purity was >93% as determined by analytical RP-HPLC. The molecular mass of the peptide was verified by ESI mass spectrometry.
IM-MS was utilized to monitor the oligomerization of TDP-43307-319 in the presence of molecules AC0107, AC0105, AC0102 and AC0201. The ability of IMMS to separate species of a specific [m]z+ (m=mass, z=charge) that contains different [n]z+ (n=oligomer number) by measuring the arrival time distributions (ATDs) yields oligomeric distributions. Samples were prepared as mentioned previously and incubated at room temperature under quiescent conditions.
The TDP-43307-319 WT peptide was dissolved in 10 mM ammonium acetate (pH 7.4) with 2% HFIP to a final peptide concentration of 100 μM. The sample was incubated at room temperature under quiescent conditions for 4 h to develop higher-order oligomers. Two dominant mass/charge (m/z) peaks were always present in the mass spectra corresponding to [n]Z+=[1]1+ and [1]2+. […] After incubation at room temperature for 4 h, the distribution shifted toward the higher-order oligomers. […] Once the presence of higher-order oligomers was confirmed, an inhibitor (either [AC0107], [AC0105], [AC0102], [AC0201] or [AC0202]) was added in a 1:1 peptide (100 μM): inhibitor (100 μM) molar ratio. Subsequent time points were taken to monitor the remodeling properties of the inhibitors.

TDP-43307-319 WT peptide [3] = target: T1, TDP-43307-319 WT peptide; assay: as above; format: biochemical; details: 100 μM peptide
[4] = Homo sapiens, U2OS, normalized to sodium arsenite and vehicle, read-out: maximum stress granule inhibition in cytosol
[5] = 1:1 peptide (100 μM): inhibitor (100 μM), added after 4 h aggregation

Structure (SMILES) | TDP43 granule formation inhibition in cells after arsenite treatment (overall result) [1] | inhibition at 10 µM [1, 4] [%] | oligomer distribution initially after addition of inhibitor to aggregated WT peptide (TDP-43307-319 WT peptide [2]; 1:1, 100 μM each) | remodeling of developed higher-order oligomers and prevention of re-formation (overall) (TDP-43307-319 WT peptide [2]) | further results
CC(=O)Nc1ccc(CNCCc2cccc(Cl)c2)cc1 [AC0101, N-[4-({[2-(3-chlorophenyl)ethyl]amino}methyl)phenyl]acetamide] | positive | 44 |  |  | inhibition at 5 µM ([1]; Homo sapiens, U2OS, at 5 μM, normalized to sodium arsenite and vehicle, read-out: maximum stress granule inhibition in nucleus): 62.5%
CN(C)Cc1ccc(CNCc2ccc3c(c2)OCCO3)cc1 [AC0102, (2,3-dihydro-1,4-benzodioxin-6-ylmethyl)({4 [(dimethylamino)-methyl]phenyl}methyl)amine] | positive | 36.9 | shift toward higher-order oligomers | able to remodel the developed higher-order oligomers and prevent the re-formation of these toxically related species | inhibition at 10 µM ([1]; Homo sapiens, U2OS, normalized to sodium arsenite and vehicle, read-out: maximum stress granule inhibition in nucleus): 27.7%; oligomer distribution after 1 h (TDP-43307-319 WT peptide [2]; 1:1, 100 μM each, 1 h after addition): remnants of higher-order oligomers are present; oligomer distribution at later time points (TDP-43307-319 WT peptide [2]; 1:1, 100 μM each, later time points): composed primarily of monomer and dimer; rate of redistribution relative to the other inhibitors (TDP-43307-319 WT peptide [2]): slower rate
CN(C)C(=O)C(c1ccccc1)N1CCN(c2ccc(O)cc2)CC1 (stereo not shown) [AC0103, 2-[4-(4-hydroxyphenyl)piperazin-1-yl]-N,N-dimethyl-2 phenylacetamide] | positive | 47.2 |  |  | 
N#Cc1cccc(CNCc2ccc(CN3CCOCC3)cc2)c1 [AC0104, 3-[({[4-(morpholin-4 ylmethyl)phenyl]methyl}amino)methyl]benzonitrile] | mildly active |  |  |  | 
N#Cc1ccc(CNCc2ccc(CN3CCCC3)cc2)cc1 [AC0105, 4-[({[4-(pyrrolidin-1 ylmethyl)phenyl]methyl}amino)methyl]benzonitrile] | mildly active |  | immediate dissociation of higher-order oligomers into monomer and dimer | able to remodel the developed higher-order oligomers and prevent the re-formation of these toxically related species | oligomer distribution a week after single treatment (TDP-43307-319 WT peptide [2]; 1:1, 100 μM each): maintained for a week
N#Cc1ccc(CNCc2cccc(CN3CCCC3)c2)cc1 [AC0107, 4-[({[3-(pyrrolidin-1-ylmethyl)phenyl]methyl}amino)methyl]benzonitrile] |  |  | initial increase in the number of higher-order oligomers | able to remodel the developed higher-order oligomers and prevent the re-formation of these toxically related species | time by which redistribution to mostly monomer and dimer is seen (TDP-43307-319 WT peptide [2]; 1:1, 100 μM each): ≥ 3 h; complexation between WT peptide and molecule in mass spectra (TDP-43307-319 WT peptide [2]; [5]): no complexation; level of aggregation (signal-to-noise ratio, baseline, [1]1+ peak) after addition of inhibitor (TDP-43307-319 WT peptide [2]; [5]): level of aggregation was reduced
CC(C)C(NCc1ccccc1)c1cccc(C=O)c1 (stereo not shown) [AC0201, 3-[1-(benzylamino)-2-methylpropyl]benzaldehyde] |  |  | immediately pushed the bulk of the distribution back to monomer, dimer, and trimer | successfully redistributed the oligomers to monomer and was able to prevent the re-formation of higher-order oligomers | redistribution of oligomers at 10:1 peptide:inhibitor molar ratio (TDP-43307-319 WT peptide [3]; 10 μM inhibitor): takes a longer time to dissociate oligomers to mostly monomer; also recorded: very effective inhibitor; also recorded: effective; redistribution of oligomers at 4:1 peptide:inhibitor molar ratio (TDP-43307-319 WT peptide [3]; 25 μM inhibitor): effective at redistributing and maintaining the population of lower-order oligomers; redistribution of oligomers at 2:1 peptide:inhibitor molar ratio (TDP-43307-319 WT peptide [3]; 50 μM inhibitor): effective at redistributing and maintaining the population of lower-order oligomers; oligomer distribution at 3-24 h (TDP-43307-319 WT peptide [2]; 1:1, 100 μM each, 3-24 h after addition): dominated by monomer and dimer; oligomer distribution a week after single treatment (TDP-43307-319 WT peptide [2]; 1:1, 100 μM each): dominate monomer peak was observed; rate of redistribution relative to the other inhibitors (TDP-43307-319 WT peptide [2]): fastest and most efficient redistribution
